Results as given in US6444684B1 (priority 1993, dated 2002).

Assays:
[1] = tested on: K/1 = ras^K Transformed NRKE Cells; conditions: for Differential Index K/1: K/1 = ras^K transformed NRKE cells, compared with normal NRKE cells
[2] = tested on: Non-Small Cell Lung Cancer cell lines; assay: NCI in vitro anticancer screen (SRB), non-small cell lung cancer subpanel; conditions: 48 hours exposure; average percent growth over the cell lines
Procedure: (§1) Compounds chosen for the program are initially tested in an in vitro anticancer screen. A total of fifty-five human tumor cell lines, derived from nine cancer types (lung, colon, melanoma, renal, ovarian, brain, prostate, breast and leukemia), are used in this screen. The tumor cells are inoculated over a series of standard 96-well microtiter plates on day 0. These cells are then preincubated on the microtiter plates for 24 hours. The test compounds are added to the wells in five 10-fold dilutions starting from the highest soluble concentration. Each compound is tested against every cell line in the panel. The compounds are incubated for 48 hours with the tumor cell lines. At the termination of the assay, the cells are fixed in situ, washed, and dried. Sulforhodamine B (SRB), a pink anionic dye that binds to the basic amino acids of trichloroacetic acid-fixed cells, is added. The cells are washed again, and the remaining dye is a function of the adherent cell mass. The bound stain is solubilized and measured spectrophotometrically. The data are entered from automatic reading devices into a computer for subsequent storage and analysis.
(§2) The measured effect of each test compound on the cell lines is calculated according to one or the other of the following two expressions:
(§3) If (Mean ODtest−Mean ODtzero)□0, then PG=100×(Mean ODtest−Mean ODtzero)/(Mean ODctrl−Mean ODtzero);
(§4) If (Mean ODtest−Mean ODtzero)<0, then PG=100×(Mean ODtest−Mean ODtzero)/Meantzero;
(§5) First, a data sheet is provided which lists, for each cell line, the Mean ODtzero, the Mean ODctrl, the Mean ODtest for each of the five concentrations, the calculated PGs for each concentration, and the response parameters G150, TGI, and LC50.
(§6) Third, mean graphs at each of the principal response parameters (GI50, TGI, and LC50) are provided. […] Since the bar scale is logarithmic, a bar two units to the right implies the compound achieved the response parameter (e.g., GI50) for the cell line at a concentration 1/100 the mean concentration required over all cell lines, and thus the cell line is unusually sensitive to that compound. Bars extending to the left correspondingly imply sensitivity less than the mean. Thus, the mean graphs facilitate visual scanning of data for potential patterns of selectivity for particular cell lines or for particular subpanels with respect to a selected response parameter.

Colon Cancer cell lines = assay: NCI in vitro anticancer screen (SRB), colon cancer subpanel; conditions: 48 hours exposure; average percent growth over the cell lines
CNS Cancer cell lines = assay: NCI in vitro anticancer screen (SRB), CNS cancer subpanel; conditions: 48 hours exposure; average percent growth over the cell lines
Leukemia cell lines = assay: NCI in vitro anticancer screen (SRB), leukemia subpanel; conditions: 48 hours exposure; average percent growth over the cell lines
[3] = tested on: 3LL = Lewis Lung Carcinoma Cells; conditions: 3LL = Lewis lung carcinoma cells, compared with normal NRKE cells
[4] = tested on: Prostate Cancer cell lines; assay: NCI in vitro anticancer screen (SRB), prostate cancer subpanel; conditions: 48 hours exposure; average percent growth over the cell lines
Procedure: as §1, §2, §3, §4

[5] = tested on: N/4.2-NRKE transformed by the human ras^N gene; conditions: N/4.2 = ras^N transformed NRK cells, compared with normal NRKE cells
Melanoma cell lines = assay: NCI in vitro anticancer screen (SRB), melanoma subpanel; conditions: 48 hours exposure; average percent growth over the cell lines
Procedure: as §1, §2, §3, §4, §5, §6

Breast Cancer cell lines = assay: NCI in vitro anticancer screen (SRB), breast cancer subpanel; conditions: 48 hours exposure; average percent growth over the cell lines
Procedure: as §1, §2, §3, §4

[6] = tested on: H/1.2 = ras^H Transformed NRKE Cells; conditions: H/1.2 = ras^H transformed NRKE cells, compared with normal NRKE cells
[7] = tested on: Ovarian Cancer cell lines; assay: NCI in vitro anticancer screen (SRB), ovarian cancer subpanel; conditions: 48 hours exposure; average percent growth over the cell lines
Procedure: as §1, §2, §3, §4

Renal Cancer cell lines = assay: NCI in vitro anticancer screen (SRB), renal cancer subpanel; conditions: 48 hours exposure; average percent growth over the cell lines
Procedure: as §1, §2, §3, §4, §5, §6

[8] = tested on: K/1-NRKE tumor (ras^K-transformed NRKE cells); conditions: mouse, in vivo
HIV-RT = HIV-RT (Human immunodeficiency virus type 1 group M subtype B, UniProt P03366); assay: HIV-RT inhibition by AZT-TP, lavendamycin analogs and their combinations; type: biochemical; parameters: unit of the concentration uncertain; conditions: LA Conc. 0 (unit uncertain); for % inh. ave.: average of three trials
Text: AZT-TP was used for these in vitro studies since AZT is naturally phosphorylated in vivo.
The results of these tests are given in Table XVIII and XIX below, where the percent inhibition of HIV-RT activity is reported for three different trials and then averaged in the seventh column. […] .

[9] = AZT-TP Conc. 0.01 (unit uncertain)
[10] = AZT-TP Conc. 0.05 (unit uncertain)

Row | Structure (SMILES) | Differential Index K/1 [1] | Differential Index 3LL [3] | Differential Index N/4.2 [5] | Differential Index H/1.2 [6] | also measured
1 | CC(=O)NC1=CC(=O)c2ccc(-c3nc(C(=O)O)cc4c3[nH]c3ccccc34)nc2C1=O [Compound 2] | 2.14 | 0.38 | 1.50 | 1.36 | Activity (Average PG for highest dose tested) Non-Small Cell Lung Cancer [2]: −27.9%; Activity (Average PG for highest dose tested) Colon Cancer (Colon Cancer cell lines): −43.6%; Activity (Average PG for highest dose tested) CNS Cancer (CNS Cancer cell lines): −26.6%; Activity (Average PG for highest dose tested) Leukemia (Leukemia cell lines): −34.7%; Activity (Average PG for highest dose tested) Prostate Cancer [4]: −45.5%; Activity (Average PG for highest dose tested) Melanoma (Melanoma cell lines): −53.7%; Activity (Average PG for highest dose tested) Breast Cancer (Breast Cancer cell lines): −32.6%; Activity (Average PG for highest dose tested) Ovarian Cancer [7]: −62.7%; Activity (Average PG for highest dose tested) Renal Cancer (Renal Cancer cell lines): −74.6%
2 | CCCCOC(=O)c1cc2c([nH]c3ccc(F)cc32)c(-c2ccc3c(n2)C(=O)C(NC(C)=O)=CC3=O)n1 [Compound 5] | 1.88 | 0.29 | 0.74 | 0.88 | 
3 | CCCCCCCCOC(=O)c1cc2c([nH]c3ccccc32)c(-c2ccc3c(n2)C(=O)C(NC(=O)CCl)=CC3=O)n1 [Compound 10, 7-N-CHLOROACETYLDEMETHYLLAVENDAMYCIN OCTYL ESTER] | >2.2 | i1.0 | i1.0 | i1.0 | 
4 | CCCCOC(=O)c1cc2c([nH]c3ccc(OC)cc32)c(-c2ccc3c(n2)C(=O)C(NC(C)=O)=CC3=O)n1 [Compound 4] | 1.14 | <0.75 | 1.14 | 1.19 | 
5 | CC(C)C(=O)NC1=CC(=O)c2ccc(C=O)nc2C1=O [Compound 25] | >1.5 | >3.3 | ˜1.0 | ˜1.0 | 
6 | CCCCOC(=O)c1cc2c([nH]c3ccccc32)c(-c2ccc3c(n2)C(=O)C(NC(=O)CCC)=CC3=O)n1 [Compound 12] | 1.32 | 0.29 | 0.94 | 1.61 | 
7 | CCCCCCCCOC(=O)c1cc2c([nH]c3ccccc32)c(-c2ccc3c(n2)C(=O)C(NC=O)=CC3=O)n1 [Compound 56, 7-N-formyldemethyllavendamycin octyl ester] | >1.57 | >1.03 | >1.5 | i1.00 | Activity (Average PG for highest dose tested) Non-Small Cell Lung Cancer [2]: −28.8%; Activity (Average PG for highest dose tested) Colon Cancer (Colon Cancer cell lines): −30.0%; Activity (Average PG for highest dose tested) CNS Cancer (CNS Cancer cell lines): −36.8%; Activity (Average PG for highest dose tested) Leukemia (Leukemia cell lines): −29.7%; Activity (Average PG for highest dose tested) Prostate Cancer [4]: +14.0%; Activity (Average PG for highest dose tested) Melanoma (Melanoma cell lines): −39.9%; Activity (Average PG for highest dose tested) Breast Cancer (Breast Cancer cell lines): −42.3%; Activity (Average PG for highest dose tested) Ovarian Cancer [7]: −57.3%; Activity (Average PG for highest dose tested) Renal Cancer (Renal Cancer cell lines): −51.3%
8 | CC(=O)NC1=CC(=O)c2ccc(-c3nc(C(=O)OCCC(C)C)cc4c3[nH]c3ccccc34)nc2C1=O [Compound 20] |  |  |  |  | selective toxicity against ras^K oncogene bearing tumor cells as compared to the normal, non-transformed cells ([1]; LC50 NRKE divided by LC50 K/1): 18 fold; tumor growth inhibition in vivo (in words) [8]: excellent tumor growth inhibition; Activity (Average PG for highest dose tested) Non-Small Cell Lung Cancer [2]: −19.1%; Activity (Average PG for highest dose tested) Colon Cancer (Colon Cancer cell lines): −53.0%; Activity (Average PG for highest dose tested) CNS Cancer (CNS Cancer cell lines): −49.5%; Activity (Average PG for highest dose tested) Leukemia (Leukemia cell lines): −4.0%; Activity (Average PG for highest dose tested) Prostate Cancer [4]: −70.5%; Activity (Average PG for highest dose tested) Melanoma (Melanoma cell lines): −75.2%; Activity (Average PG for highest dose tested) Breast Cancer (Breast Cancer cell lines): −38.6%; Activity (Average PG for highest dose tested) Ovarian Cancer [7]: −42.2%; Activity (Average PG for highest dose tested) Renal Cancer (Renal Cancer cell lines): −56.1%
9 | Cc1ccc2c(n1)C(=O)C(N)=C(Cl)C2=O [Compound 59, 7-Amino-6-Chloro-2-Methylquinoline-5,8-Dione] | 1.25 | 0.63 | 1.14 | 1.25 | 
10 | Cc1ccc2c(n1)C(=O)C(NC(=O)C(C)C)=CC2=O [Compound 29] | 0.2 | 2.1 | 1.3 | 1.03 | 
11 | CCCC(=O)NC1=CC(=O)c2ccc(-c3nc(C(=O)OC)c(C)c4c3[nH]c3ccccc34)nc2C1=O [Compound 11, 7-N-BUTYRYLLAVENDAMYCIN METHYL ESTER] | 0.97 | 0.39 | 0.76 | 0.80 | 
12 | Cc1cn([C@H]2C[C@H](N=[N+]=[N-])[C@@H](COP(=O)(O)OP(=O)(O)OP(=O)(O)O)O2)c(=O)[nH]c1=O [AZT-TP, 3′-azido-3′-deoxythymidine 5′-triphosphate, reference compound] |  |  |  |  | % inh. Trial 1 (HIV-RT; [9]): 27%; % inh. Trial 2 (HIV-RT; [9]): 27%; % inh. Trial 3 (HIV-RT; [9]): 29%; % inh. ave. (HIV-RT; [9]): 27.7%; % inh. Trial 1 (HIV-RT; [10]): 51%; % inh. Trial 2 (HIV-RT; [10]): 52%; % inh. Trial 3 (HIV-RT; [10]): 49%; % inh. ave. (HIV-RT; [10]): 50.7%
13 | CCCCCCCCOC(=O)c1cc2c([nH]c3ccccc32)c(-c2ccc3c(n2)C(=O)C(N)=CC3=O)n1 [Compound 57, demethyllavendamycin octyl ester] |  |  |  |  | Activity (Average PG for highest dose tested) Non-Small Cell Lung Cancer [2]: +89.8%; Activity (Average PG for highest dose tested) Colon Cancer (Colon Cancer cell lines): +100.3%; Activity (Average PG for highest dose tested) CNS Cancer (CNS Cancer cell lines): +81.0%; Activity (Average PG for highest dose tested) Leukemia (Leukemia cell lines): +90.8%; Activity (Average PG for highest dose tested) Prostate Cancer [4]: +94.5%; Activity (Average PG for highest dose tested) Melanoma (Melanoma cell lines): +89.4%; Activity (Average PG for highest dose tested) Breast Cancer (Breast Cancer cell lines): +96.0%; Activity (Average PG for highest dose tested) Ovarian Cancer [7]: +89.3%; Activity (Average PG for highest dose tested) Renal Cancer (Renal Cancer cell lines): +68.7%
14 | COC(=O)c1nc(-c2ccc3c(n2)C(=O)C(NC(=O)CCl)=CC3=O)c2[nH]c3ccccc3c2c1C [Compound 7, 7-N-CHLOROACETYLLAVENDAMYCIN METHYL ESTER] | 0.73 | 0.29 | 0.76 | 1.00 | 
15 | CCCC(=O)NC1=CC(=O)c2ccc(-c3nc(C(=O)OCCC(C)C)cc4c3[nH]c3ccccc34)nc2C1=O [Compound 13, 7-N-BUTYRYLDEMETHYLLAVENDAMYCIN ISOAMYL ESTER] | 1.67 | 0.42 | 1.53 | 2.70 | 
16 | CC(=O)NC1=CC(=O)c2ccc(-c3nccc4c3[nH]c3ccccc34)nc2C1=O [Compound 6] | 0.91 | 0.13 | 0.82 | 1.00 | 
17 | CCCCCCCCOC(=O)c1cc2c([nH]c3ccccc32)c(-c2ccc3c(n2)C(=O)C(NC(=O)CCC)=CC3=O)n1 [Compound 14, 7-N-BUTYRYLDEMETHYLLAVENDAMYCIN OCTYL ESTER] | >10.0 | >2.06 | >2.2 | >2.06 | 
18 | CCCCOC(=O)c1cc2c([nH]c3ccccc32)c(-c2ccc3c(n2)C(=O)C(NC(=O)C(C)C)=CC3=O)n1 [Compound 15] | 2.25 | 1.00 | 1.80 | 1.48 | 
19 | CC(C)CCOC(=O)c1cc2c([nH]c3ccccc32)c(-c2ccc3c(n2)C(=O)C(NC(=O)CCl)=CC3=O)n1 [Compound 9, 7-N-CHLOROACETYLDEMETHYLLAVENDAMYCIN ISOAMYL ESTER] | 2.41 | 0.42 | 1.13 | 1.02 | 
20 | O=P1(N(CCCl)CCCl)NCCCO1 (stereo not shown) [CY, cyclophosphamide, reference compound] |  |  |  |  | Number Dead Number Treated ([8]; female, CD1 nu/nu): 0/7; Percent Wt. Change (g) [8]: −3.0 ″ 0.09 g
